From patent US20130072517A1 (Avanir Pharmaceuticals, Inc., priority 2002, published 2013)

How the values were obtained:
[1] = Clinical Study #2: plasma pharmacokinetics of dextromethorphan, dextrorphan and quinidine, single and multiple dose; conditions: for AUC(0-t) / Cmax / Tmax: human, in vivo, mean; for AUC(0-t): AUC (0-12) (plasma); for Cmax: Cmax (plasma); for Tmax: Tmax (plasma)
Experimental: Descriptive statistics for each parameter, including mean, median, standard deviation, coefficient of variation, N, minimum, and maximum were calculated for all of the subjects by Day. In addition, descriptive statistics were presented by the subgroups: extensive metabolizer (EM) and poor metabolizer (PM).
The ANOVA model included the factors group (EM or PM), subject within group, day, and the interaction term day by group. The group effect was tested using the subject within group mean square, and all other main effects were tested using the residual error (error mean square). In addition, tests of the hypotheses Day 1=Day 4, Day 1=Day 8, and Day 4=Day 8 were performed.

[2] = Clinical Study #5: concentrations in plasma of DM, DX and Q and correlation with pain intensity; type: in vivo, human; conditions: final visit; for Concentration in plasma, Mean / Concentration in plasma, Median: extensive metabolizers
Experimental: Subjects visited the clinic every two weeks during the four-week duration of the study and were contacted by telephone during weeks without clinic visits. At each subsequent study visit or weekly phone call, the subjects were given the Pain Intensity Rating Scale and the Pain Relief Rating Scale and were queried regarding any adverse events that might have occurred since their previous visit. Subjects were administered the Peripheral Neuropathy Quality of Life (QOL) Instrument on Days 1 and 29 (or the final visit). Blood samples were taken at the visits on Day 15 and Day 29 to determine concentrations in plasma of DM, DX, and Q.

[3] = type: in vivo
Description: An adverse event was any unfavorable and unintended sign (including an abnormal laboratory finding, for example), symptom, or disease temporally associated with the use of a medicinal product, whether or not considered related to the medicinal product. Changes associated with normal growth and development not varying in frequency or magnitude from that ordinarily anticipated clinically are not adverse events (for example, onset of menstruation occurring at a physiologically appropriate time). Clinical adverse events were described by diagnosis and not by symptoms when possible (for example, cold or seasonal allergies, instead of “runny nose”).
The severity of adverse events was graded on a 3-point scale and reported in detail as indicated on the Case Report Form: mild—easily tolerated, causing minimal discomfort, and not interfering with normal everyday activities; moderate—sufficiently discomforting to interfere with normal everyday activities; and severe—incapacitating and/or preventing normal everyday activities.
Subjects were instructed to promptly report any adverse event. The serious adverse event was assessed for the following details: seriousness of event, start date, stop date, intensity, frequency, relationship to test drug, action taken regarding test drug, treatment required, and outcome to date. These details were recorded on the Case Report Form. Such preliminary reports were followed by detailed descriptions that included copies of hospital case reports, autopsy reports, and other documents when requested and applicable.
Blood and urine were collected at the screening visit and Day 29 for clinical chemistry, hematology, urinalysis, and pregnancy testing. In the event of an abnormal laboratory test value, the test was repeated within one week, and the subject was followed up until the value returned to the normal range and/or until an adequate explanation of the abnormality was found.
Values were obtained for systolic and diastolic blood pressure, heart rate, and respiration rate on the screening visit and all other study visits. All values outside the pre-defined ranges were flagged in the subject data listings. Electrocardiography (twelve lead) was used to obtain ventricular rate (VR), QT, Q-Tc intervals, […] (PR), and QRS duration. A blood sample (10 mL whole blood) was taken from each subject at the Screening Visit for CYP2D6 genotyping to determine which subjects were poor metabolizers of DM and which were extensive metabolizers. Blood samples were taken on Day 29 for the determination of concentrations of DM, DX, and Q in plasma. The relationship between the concentration of drug in plasma and changes in CNS-LS scores was determined, and the effect of the CYP2D6 genotype on this relationship was evaluated.

[4] = Day 1, All Subjects, 30 mg DM HBr/25 mg Q sulfate capsule every 12 hours
[5] = Day 1, EM, 30 mg DM HBr/25 mg Q sulfate capsule every 12 hours
[6] = Day 1, PM, 30 mg DM HBr/25 mg Q sulfate capsule every 12 hours
[7] = Day 4, All Subjects, 30 mg DM HBr/25 mg Q sulfate capsule every 12 hours
[8] = Day 4, EM, 30 mg DM HBr/25 mg Q sulfate capsule every 12 hours
[9] = Day 4, PM, 30 mg DM HBr/25 mg Q sulfate capsule every 12 hours
[10] = Day 8, All Subjects, 30 mg DM HBr/25 mg Q sulfate capsule every 12 hours
[11] = Day 8, EM, 30 mg DM HBr/25 mg Q sulfate capsule every 12 hours
[12] = Day 8, PM, 30 mg DM HBr/25 mg Q sulfate capsule every 12 hours

CN1CC[C@@]23CCCC[C@@H]2[C@@H]1Cc1ccc(O)cc13 [Dextrorphan, dextrorphan]
AUC(0-t) [1, 4]: 749 ng·h/mL
AUC(0-t) [1, 5]: 934 ng·h/mL
AUC(0-t) [1, 6]: 91 ng·h/mL
AUC(0-t) [1, 7]: 742 ng·h/mL
AUC(0-t) [1, 8]: 849 ng·h/mL
AUC(0-t) [1, 9]: 365 ng·h/mL
AUC(0-t) [1, 10]: 896 ng·h/mL
AUC(0-t) [1, 11]: 1000 ng·h/mL
AUC(0-t) [1, 12]: 530 ng·h/mL
Cmax [1, 4]: 99.5 ng/mL
Cmax [1, 5]: 125 ng/mL
Cmax [1, 6]: 10.8 ng/mL
Cmax [1, 7]: 69.9 ng/mL
Cmax [1, 8]: 79.3 ng/mL
Cmax [1, 9]: 37 ng/mL
Cmax [1, 10]: 108 ng/mL
Cmax [1, 11]: 124 ng/mL
Cmax [1, 12]: 51.5 ng/mL
Tmax [1, 4]: 3.78 h
Tmax [1, 5]: 4 h
Tmax [1, 6]: 3 h
Tmax [1, 7]: 2.17 h
Tmax [1, 8]: 2.21 h
Tmax [1, 9]: 2 h
Tmax [1, 10]: 32.7 h
Tmax [1, 11]: 41.2 h
Tmax [1, 12]: 2.99 h
Fold increase in AUC (0-12) from Day 1 to Day 8 ([1]; poor metabolizers): 4.8 fold
Concentration in plasma, Mean ([2]; DM/Q MTD 30 mg): 70.7 ng/mL
Concentration in plasma, Median ([2]; DM/Q MTD 30 mg): 94.6 ng/mL
Concentration in plasma, Mean ([2]; DM/Q MTD 60 mg): 65.4 ng/mL
Concentration in plasma, Median ([2]; DM/Q MTD 60 mg): 58.2 ng/mL
Concentration in plasma, Mean ([2]; DM/Q MTD 90 mg): 88.4 ng/mL
Concentration in plasma, Median ([2]; DM/Q MTD 90 mg): 88.4 ng/mL
Concentration in plasma, Mean ([2]; DM/Q MTD 120 mg): 146.6 ng/mL
Concentration in plasma, Median ([2]; DM/Q MTD 120 mg): 122.6 ng/mL
Concentration in plasma, Mean ([2]; Total, all MTDs): 123.9 ng/mL
Concentration in plasma, Median ([2]; Total, all MTDs): 102.6 ng/mL
Concentration in plasma ([2]; poor metabolizer (MTD of 60 mg)): 41.0 ng/mL

C=C[C@H]1C[N@@]2CC[C@H]1C[C@@H]2[C@@H](O)c1ccnc2ccc(OC)cc12 [Quinidine, quinidine]
Tmax [1]: 1.71 h
Subjects with dizziness ([3]; 28 days, twice daily): 2.7%
Subjects with nausea ([3]; 28 days, twice daily): 8.1%
Subjects with somnolence ([3]; 28 days, twice daily): 0%
Subjects who withdrew because of adverse events ([3]; human, in vivo, 29 days): 8.1%
Subjects reporting serious adverse events ([3]; judged not related to the study drug): only other serious adverse event
